From patent US7205305B2, “Inhibitors of p38” (Vertex Pharmaceuticals Incorporated, priority 1996, dated 2007) come the findings set out here.

Structures are written as SMILES.

For one test, the target named is activated p38 (Homo sapiens, UniProt Q16539). Briefly: Inhibition of phosphorylation of EGF receptor peptide ("kinase"). The class given is biochemical. The following applies: inhibition of phosphorylation of EGF receptor peptide by activated p38. The essentials:
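Activated p38 was preincubated with inhibitor for 15 min at room temperature in 100 mM HEPES pH 7.6, 10 mM MgCl2, 25 mM β-glycerophosphate, 10% glycerol, 5% DMSO final. Reaction used 200 μM EGF receptor peptide and 100 μM ATP for 30 min at 30° C. TFA-quenched phosphopeptide was quantified by reverse-phase HPLC.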

The subject of test [1] is TNF production in whole blood. Briefly: Inhibition of TNF production in LPS-stimulated whole blood ("WB"). The following applies: Homo sapiens. The class given is cell-based, human. In a few lines:
(§1)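 Anticoagulated whole blood was preincubated with serially diluted compound, then stimulated with 4 ng/ml LPS (final) overnight (12–15 h) at 37° C/5% CO2. Supernatant IL-1b, TNF-α and IL-6 were measured by ELISA and IC50 derived from dose-response curves.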

Test [2] concerns IL-6 production in whole blood. The test can be described thus: Inhibition of IL-6 production in LPS-stimulated whole blood ("WB"). Type of test: cell-based, human. The following applies: Homo sapiens. In a few lines:
as §1

Test [3] has as its system TNF production in LPS-stimulated PBMCs. Briefly: Inhibition of TNF production in LPS-stimulated PBMCs ("cell"). The class given is cell-based, human. The following applies: Homo sapiens, PBMC. The essentials:
(§2)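 Cytokine levels (IL-1β, TNF-α) in culture supernatants quantified by ELISA, with IC50 taken from dose-response curves. Fresh human PBMCs in RPMI1640 with 10% FBS received serially diluted compound plus LPS (4 ng/ml final) and were cultured 12–15 h at 37 °C, 5% CO2.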

Test [4] concerns IL-1 production in whole blood. Briefly: Inhibition of IL-1 production in LPS-stimulated whole blood ("WB"). Type of test: cell-based, human. The following applies: Homo sapiens. The essentials: as §1
In test [5] the test system is IL-1 production in LPS-stimulated PBMCs. Briefly: Inhibition of IL-1 production in LPS-stimulated PBMCs ("cell"). The following applies: Homo sapiens, PBMC. The class given is cell-based, human. The essentials: as §2

Chain of activated p38 (Q16539 whole entry): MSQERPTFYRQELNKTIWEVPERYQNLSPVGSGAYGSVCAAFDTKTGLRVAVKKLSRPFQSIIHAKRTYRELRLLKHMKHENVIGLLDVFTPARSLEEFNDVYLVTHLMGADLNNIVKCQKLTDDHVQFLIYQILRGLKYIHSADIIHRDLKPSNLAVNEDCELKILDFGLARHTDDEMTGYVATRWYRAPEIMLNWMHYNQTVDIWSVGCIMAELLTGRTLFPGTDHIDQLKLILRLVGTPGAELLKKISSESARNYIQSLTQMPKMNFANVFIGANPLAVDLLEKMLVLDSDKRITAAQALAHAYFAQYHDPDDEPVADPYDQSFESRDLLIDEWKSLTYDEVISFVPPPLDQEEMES

The term IC50 denotes the midpoint of a concentration-inhibition curve. For `NC(=O)C(c1cccc(-c2cccc3ccccc23)n1)c1c(Cl)cccc1Cl` (stereo not drawn) [Compound 362], the IC50 was ≤ 100 nM against activated p38; ≥ 500 nM in test [1]; ≥ 500 nM in test [2]; 100 to 500 nM in test [3]; ≥ 500 nM in test [4]; 100 to 500 nM in test [5].
Take `Cc1cc(F)ccc1-c1cccc(C(C(N)=O)c2c(Cl)cccc2Cl)n1` (stereo not drawn) [Compound 363]: the IC50 on activated p38 was ≤ 100 nM; in test [1], ≥ 500 nM; in test [2], ≥ 500 nM; in test [3], 100 to 500 nM; in test [4] it was ≥ 500 nM; in test [5] it was ≤ 100 nM.
With `Cc1cc(F)ccc1-c1cccc(C(C(N)=O)c2c(Cl)cc(N)cc2Cl)n1` (stereo not drawn) [Compound 364], the IC50 is ≤ 100 nM on activated p38; ≥ 500 nM in test [1]; ≥ 500 nM in test [2]; 100 to 500 nM in test [3]; ≥ 500 nM in test [4]; ≤ 100 nM in test [5].
With `NC(=O)N(c1cccc(-c2ccccc2)n1)c1c(Cl)cccc1Cl` [Compound 401], the IC50 against activated p38 was ≤ 100 nM; in test [1], ≥ 500 nM; in test [2] it was ≥ 500 nM; in test [3], 100 to 500 nM; in test [4] it was ≥ 500 nM; in test [5], 100 to 500 nM.
`Cc1ccccc1-c1cccc(N(C(N)=O)c2c(Cl)cccc2Cl)n1` [Compound 402]: the IC50 is ≤ 100 nM at activated p38; ≥ 500 nM in test [1]; ≥ 500 nM in test [2]; ≤ 100 nM in test [3]; ≥ 500 nM in test [4]; ≤ 100 nM in test [5].
For the molecule `Cc1ccccc1-c1cccc(N(C(N)=O)c2c(F)cccc2F)n1` [Compound 403], the IC50 is ≤ 100 nM against activated p38; ≥ 500 nM in test [1]; 250 to 500 nM in test [2]; ≤ 100 nM in test [3]; ≥ 500 nM in test [4]; ≤ 100 nM in test [5].
Turning to `NC(=O)N(c1cccc(-c2ccc(F)cc2)n1)c1c(F)cccc1F` [Compound 404], the IC50 at activated p38 is ≤ 100 nM; in test [1], ≥ 500 nM; in test [2], ≥ 500 nM; in test [3], ≤ 100 nM; in test [4] it was ≥ 500 nM; in test [5] it was ≤ 100 nM.
Turning to `Cc1cc(F)ccc1-c1cccc(N(C(N)=O)c2c(Cl)cccc2Cl)n1` [Compound 409], the IC50 was ≤ 100 nM against activated p38; ≥ 500 nM in test [1]; 250 to 500 nM in test [2]; ≤ 100 nM in test [3]; ≥ 500 nM in test [4]; ≤ 100 nM in test [5].
As to `Cc1cc(F)ccc1-c1cccc(N(C(N)=O)c2c(F)cccc2F)n1` [Compound 410], the IC50 against activated p38 is ≤ 100 nM; in test [1], 250 to 500 nM; in test [2], 250 to 500 nM; in test [3], ≤ 100 nM; in test [4], 250 to 500 nM; in test [5], ≤ 100 nM.
Consider `Cc1cc(F)ccc1-c1cccc(N(C(N)=O)c2cc3c(cc2Cl)OCO3)n1` [Compound 411], for which the IC50 at activated p38 was ≤ 100 nM; in test [1] it was ≥ 500 nM; in test [2], ≥ 500 nM; in test [3], ≤ 100 nM; in test [4] it was ≥ 500 nM; in test [5], ≤ 100 nM.
